The record followed here is PubChem BioAssay (NCI).

Several values for one entry are separate records, joined by “and”; a condition that tells them apart may be missing. Identical values can stand only once.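 Where inhibition never reached the appropriate level, the endpoint shown equals the highest concentration tested. Otherwise, values were interpolated linearly from a five-concentration, 48-hour dose response in 96-well plates. GI50 is the concentration that inhibits growth by half. TGI marks complete inhibition of growth.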 Some results are limits rather than exact numbers.

The test system of the first assay is HT29 colon. Put plainly: NCI anticancer screen, dose series, 48 h.
On to `CCCCCCCCCCCC(=O)OCCOCCOCCOCCOCCOCc1ccccc1`, for which the TGI is > 100 µM.

On to `CCCCCCCCCCCCCC(=O)OC(/C=C/C(C)C)C(O)C(O)C(OC)C(=O)NC1CCCCN(C)C1=O` (centres undefined), for which the TGI is 7.01 µM and > 49 µM.

For the molecule `CCOC(=O)CCC1(C(=O)OCC)CCCCC1=O` (centres undefined), the TGI was > 100 µM.

In the case of `COC(=O)c1ccccc1NC(=O)C(=O)Cc1nc2c3c(ccc2[nH]c1=O)C(=O)c1ccccc1C3=O`, the TGI is > 100 µM.

In the case of `CCCC1C(=O)CCc2c(OC)ccc(OC)c21` (centres undefined), the TGI was > 100 µM.

Take `NC(=O)NO.O.O.O.O.O.O.O.O.O.O.O.[Ge].[Ge].[Ge].[Ge].[Ge].[O]=[Ge].[O]=[Ge].[O]=[Ge].[O]=[Ge].[O]=[Ge][OH]`: the TGI is > 100 µM.

Consider `O=C(Nc1nc2ccc([N+](=O)[O-])cc2s1)C(=O)C(C1OC(=O)c2ccccc21)[N+](=O)[O-]` (centres undefined), for which the TGI is > 100 µM.

As to `CCC[CH2][Sn]([CH2]CCC)([S]c1cccc2cccnc12)[S]c1cccc2cccnc12`, the GI50 was 0.138 µM and the TGI was found to be 0.335 µM.

The subject of the next assay is UACC-257 melanoma. Put plainly: NCI anticancer screen, dose series, 48 h.
With `CCN1CCN(Cc2ccc(NC(=O)c3cccc(C#Cc4cccc5[nH]nc(N)c45)c3)cc2C(F)(F)F)CC1`, the GI50 is 1.05 µM and the TGI worked out at 2.82 µM.

In the case of `Cc1c(C(=O)CC(=O)C(=O)Nc2ccccc2C(F)(F)F)[n+](=O)c2ccccc2n1[O-]`, the TGI is 36.2 µM.

As to `Cc1cc(N(CCC#N)CCC#N)ccc1N=Nc1ccc(S(N)(=O)=O)cc1`, the TGI is > 100 µM.

With `Cc1nc2c(ccc3ncccc32)[nH]1`, the TGI was > 100 µM.

`C1=C2/CC[C@H](Sc3ccccc3)C2C2(CCCCC/1)OCCO2` (some centres undefined) came in with a TGI of 45.2 µM.

In the case of `O=C(CCc1nc(=S)[nH][nH]1)Nc1cc(Cl)c(Cl)cc1Cl`, the TGI is > 100 µM.

Consider `CN(C)C(=S)N=C(Nc1ccccc1)Nc1ccccc1`, for which the TGI is > 100 µM.

As to `Nc1ccccc1S(=O)(=O)N(CC(=O)O)c1ccccc1`, the TGI is > 100 µM.

In the case of `CC1(C)C(=O)/C=C\C(=O)C(C)(C)C2=CC=C(O2)C(C)(C)C(=O)/C=C\C(=O)C(C)(C)C2=CC=C1O2`, the TGI is > 100 µM.

Consider `COc1ccccc1N1C(=O)C2c3[nH]c4ccccc4c3C3CCC(C(C)(C)C)CC3C2C1=O` (centres undefined), for which the TGI was > 100 µM.

Turning to `Cc1cc(NS(=O)(=O)c2ccc(Nc3c4ccccc4nc4c(C(=O)N5CCN(CCOS(C)(=O)=O)CC5)cccc34)cc2)no1`, the TGI was > 100 µM.

Consider `O=C(O)CCC(NC(=O)c1ccc(Nc2nc3ccccc3nc2-c2cccs2)cc1)C(=O)O` (centres undefined), for which the TGI was > 100 µM.

Consider `COc1cc2ccnc([C@@H](OC(=O)c3ccccc3)c3ccc(OC)c(OC)c3OC)c2cc1OC`, for which the TGI is > 100 µM.

On to `CCn1c(C)nn2c(=O)c3ccccc3nc2c1=O`, for which the TGI was > 100 µM.

On to `COC(=O)/C(C#N)=C1\NC(=O)c2ccccc21`, for which the TGI was > 100 µM.

`CC(=O)[CH-]C(=O)c1ccccc1.CC(=O)[CH-]C(=O)c1ccccc1.CN(C)c1ccc([O-])cc1.CN(C)c1ccc([O-])cc1.Cl.[Ti+4]`: the GI50 is > 31.6 µM and the TGI is > 31.6 µM.

In the case of `NC1=NCCC1(c1ccccc1)c1ccccn1` (centres undefined), the TGI is > 100 µM.

For the molecule `CCCCCCCCCCCC(=O)OCCOCCOCCOCCOCCOCc1ccccc1`, the TGI was > 100 µM.

Consider `CCCCCCCCCCCCCC(=O)OC(/C=C/C(C)C)C(O)C(O)C(OC)C(=O)NC1CCCCN(C)C1=O` (centres undefined), for which the GI50 was > 49 µM; the TGI was 18.3 µM and > 49 µM.

`CCOC(=O)CCC1(C(=O)OCC)CCCCC1=O` (centres undefined): the TGI was > 100 µM.

As for `COC(=O)c1ccccc1NC(=O)C(=O)Cc1nc2c3c(ccc2[nH]c1=O)C(=O)c1ccccc1C3=O`, the TGI came out at 62.8 µM.

`CCOC(=O)C(C)(C)Oc1ccc2c(-c3ccccc3)cc(=O)oc2c1` yielded a TGI of 75.5 µM.

Turning to `CCCC1C(=O)CCc2c(OC)ccc(OC)c21` (centres undefined), the TGI is > 100 µM.

On to `NC(=O)NO.O.O.O.O.O.O.O.O.O.O.O.[Ge].[Ge].[Ge].[Ge].[Ge].[O]=[Ge].[O]=[Ge].[O]=[Ge].[O]=[Ge].[O]=[Ge][OH]`, for which the TGI was > 100 µM.

Take `O=C(Nc1nc2ccc([N+](=O)[O-])cc2s1)C(=O)C(C1OC(=O)c2ccccc21)[N+](=O)[O-]` (centres undefined): the TGI was > 100 µM.

Another assay relates to LOX IMVI melanoma. Briefly: NCI anticancer screen, dose series, 48 h.
In the case of `Cc1c(C(=O)CC(=O)C(=O)Nc2ccccc2C(F)(F)F)[n+](=O)c2ccccc2n1[O-]`, the TGI was 63.8 µM.

In the case of `Cc1cc(N(CCC#N)CCC#N)ccc1N=Nc1ccc(S(N)(=O)=O)cc1`, the TGI was > 100 µM.

On to `Cc1nc2c(ccc3ncccc32)[nH]1`, for which the TGI is > 100 µM.

`C1=C2/CC[C@H](Sc3ccccc3)C2C2(CCCCC/1)OCCO2` (some centres undefined) displayed a TGI of 28.9 µM.

As to `O=C(CCc1nc(=S)[nH][nH]1)Nc1cc(Cl)c(Cl)cc1Cl`, the TGI was > 100 µM.

`CN(C)C(=S)N=C(Nc1ccccc1)Nc1ccccc1`: the TGI is > 100 µM.

Consider `Nc1ccccc1S(=O)(=O)N(CC(=O)O)c1ccccc1`, for which the TGI was > 100 µM.

On to `CC1(C)C(=O)/C=C\C(=O)C(C)(C)C2=CC=C(O2)C(C)(C)C(=O)/C=C\C(=O)C(C)(C)C2=CC=C1O2`, for which the TGI is > 100 µM.

For the molecule `O=C(O)CCC(NC(=O)c1ccc(Nc2nc3ccccc3nc2-c2cccs2)cc1)C(=O)O` (centres undefined), the TGI is > 100 µM.

Regarding `COc1cc2ccnc([C@@H](OC(=O)c3ccccc3)c3ccc(OC)c(OC)c3OC)c2cc1OC`, the TGI is > 100 µM.

Take `COc1cnc2c(c1)C(=O)c1c-2n(CCCN2CCOCC2)c(=O)c2cc(F)ccc12`: the GI50 is 0.161 µM and the TGI is 0.387 µM.

Take `CCn1c(C)nn2c(=O)c3ccccc3nc2c1=O`: the TGI was > 100 µM.

Consider `COC(=O)/C(C#N)=C1\NC(=O)c2ccccc21`, for which the TGI was > 100 µM.

Consider `O=C(O)CCNCCCNCCC(=O)O`, for which the TGI is > 100 µM.

As to `CC(=O)[CH-]C(=O)c1ccccc1.CC(=O)[CH-]C(=O)c1ccccc1.CN(C)c1ccc([O-])cc1.CN(C)c1ccc([O-])cc1.Cl.[Ti+4]`, the GI50 was 26 µM and the TGI is > 100 µM.

As for `CCCCCCCCCCCC(=O)OCCOCCOCCOCCOCCOCc1ccccc1`, the TGI was > 100 µM.

`CCCCCCCCCCCCCC(=O)OC(/C=C/C(C)C)C(O)C(O)C(OC)C(=O)NC1CCCCN(C)C1=O` (centres undefined): the TGI is 6.53 µM and > 49 µM.

For the molecule `CCOC(=O)CCC1(C(=O)OCC)CCCCC1=O` (centres undefined), the TGI was > 100 µM.

Molecule `COC(=O)c1ccccc1NC(=O)C(=O)Cc1nc2c3c(ccc2[nH]c1=O)C(=O)c1ccccc1C3=O` yielded a TGI of 44.6 µM.

Molecule `CCOC(=O)C(C)(C)Oc1ccc2c(-c3ccccc3)cc(=O)oc2c1` displayed a TGI of 49.4 µM.

Consider `CCCC1C(=O)CCc2c(OC)ccc(OC)c21` (centres undefined), for which the TGI was > 100 µM.

Take `NC(=O)NO.O.O.O.O.O.O.O.O.O.O.O.[Ge].[Ge].[Ge].[Ge].[Ge].[O]=[Ge].[O]=[Ge].[O]=[Ge].[O]=[Ge].[O]=[Ge][OH]`: the TGI was > 100 µM.

`O=C(Nc1nc2ccc([N+](=O)[O-])cc2s1)C(=O)C(C1OC(=O)c2ccccc21)[N+](=O)[O-]` (centres undefined): the TGI was > 100 µM.

Turning to `CCC[CH2][Sn]([CH2]CCC)([S]c1cccc2cccnc12)[S]c1cccc2cccnc12`, the GI50 was 0.175 µM and the TGI stood at 0.359 µM.
